Laboratory results as given in patent US20230113037A1 (Bayer Aktiengesellschaft, priority 2019, published 2023).

Target: T1, AHR (Homo sapiens, UniProt P35869)
T1 construct: U87 MG glioblastoma cells (ATCC #HTB-14) endogenously expressing AHR; endogenous in cells; host or cells: U87 MG glioblastoma cells (ATCC #HTB-14)
T1 sequence (P35869 11-848): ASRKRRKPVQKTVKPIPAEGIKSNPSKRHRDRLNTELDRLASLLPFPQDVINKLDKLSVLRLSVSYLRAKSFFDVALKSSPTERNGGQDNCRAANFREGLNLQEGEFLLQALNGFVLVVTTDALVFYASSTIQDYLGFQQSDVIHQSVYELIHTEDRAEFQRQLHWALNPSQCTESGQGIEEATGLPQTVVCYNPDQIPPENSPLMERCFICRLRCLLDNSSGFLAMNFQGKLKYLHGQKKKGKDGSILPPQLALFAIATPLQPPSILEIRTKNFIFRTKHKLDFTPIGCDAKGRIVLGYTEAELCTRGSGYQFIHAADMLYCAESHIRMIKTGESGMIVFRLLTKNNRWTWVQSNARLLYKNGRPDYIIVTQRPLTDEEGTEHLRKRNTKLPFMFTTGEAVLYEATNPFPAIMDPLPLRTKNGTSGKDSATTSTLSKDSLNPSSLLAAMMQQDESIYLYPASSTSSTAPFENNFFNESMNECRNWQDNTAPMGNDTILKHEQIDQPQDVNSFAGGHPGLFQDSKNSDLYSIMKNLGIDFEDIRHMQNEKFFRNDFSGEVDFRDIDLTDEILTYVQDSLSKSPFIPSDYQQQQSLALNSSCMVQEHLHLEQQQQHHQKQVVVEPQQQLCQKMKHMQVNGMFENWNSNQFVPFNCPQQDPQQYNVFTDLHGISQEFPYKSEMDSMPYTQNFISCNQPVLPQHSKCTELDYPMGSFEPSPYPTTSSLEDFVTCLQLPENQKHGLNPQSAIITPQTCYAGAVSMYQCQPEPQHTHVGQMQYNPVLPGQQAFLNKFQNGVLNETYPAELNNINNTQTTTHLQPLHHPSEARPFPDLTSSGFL
Test: In vitro assay 1: antagonism in human cell line (AHR transactivation, firefly luciferase reporter, kynurenic acid prestimulated)
Format: cell-based
Conditions: AHR Antagonism Human IC50 [M]
Protocol: Examples were tested in selected biological assays one or more times. When tested more than once, data are reported as either average values or as median values, wherein • the average value, also referred to as the arithmetic mean value, represents the sum of the values obtained divided by the number of times tested, and • the median value represents the middle number of the group of values when ranked in ascending or descending order. If the number of values in the data set is odd, the median is the middle value. If the number of values in the data set is even, the median is the arithmetic mean of the two middle values.
Transactivation assays were carried out in U87 MG glioblastoma cells (ATCC #HTB-14) endogenously expressing AHR. In addition the cells were stably transfected with an AHR inducible firefly luciferase reporter gene construct that carried AHR-binding sites (DRE) in its promoter and a renilla reporter gene construct with constitutively active promoter. Kynurenic acid is an endogenous AHR activating ligand and was used to prestimulate test cells prior to testing the antagonistic properties of compounds.
As positive inhibition control cells supplemented with 150 μM kynurenic acid were incubated in presence of 5 μM Staurosporin. Normalization was done by positive and negative controls.
Firefly luciferase and Renilla activity was determined by the DualGlo Luciferase Assay System (Promega, #2920). Renilla activity was used to assess toxic effects of compounds.

Structure (SMILES)	IC50
CN1CC[C@@H](Nc2nc3ccccc3c3nc(-c4ccccc4OC(F)(F)F)nn23)C1=O [Example 460, (3R)-1-methyl-3-({2-[2-(trifluoromethoxy)phenyl][1,2,4]triazolo[1,5-c]quinazolin-5-yl}amino)pyrrolidin-2-one]	7.67e-08 M
Cn1cc(-c2nc3c4cc(C(F)(F)F)ccc4nc(N[C@@H]4CCCCNC4=O)n3n2)cn1 [Example 546, (3R)-3-{[2-(1-methyl-1H-pyrazol-4-yl)-9-(trifluoromethyl)[1,2,4]triazolo[1,5-c]quinazolin-5-yl]amino}azepan-2-one]	2.24e-06 M
Cc1sccc1-c1nc2c3ccccc3nc(N[C@@H]3CCCCNC3=O)n2n1 [Example 346, (3R)-3-{[2-(2-methylthiophen-3-yl)[1,2,4]triazolo[1,5-c]quinazolin-5-yl]amino}azepan-2-one]	2.24e-09 M
COc1ccc(-c2nc3c4ccc(OC)cc4nc(N[C@@H]4CNCCNC4=O)n3n2)cc1 [Example 272, (6R)-6-{[8-methoxy-2-(4-methoxyphenyl)[1,2,4]triazolo[1,5-c]quinazolin-5-yl]amino}-1,4-diazepan-5-one]	2.77e-06 M
O=C1NCCCC[C@H]1Nc1nc2ccccc2c2nc(-c3ccccc3)nn12 [Example 5, (3R)-3-[(2-phenyl[1,2,4]triazolo[1,5-c]quinazolin-5-yl)amino]azepan-2-one]	3.4e-10 M
O=C1NCCCC[C@H]1Nc1nc2ccccc2c2nc(-c3ccccc3Cl)nn12 [Example 58, (3R)-3-{[2-(2-chlorophenyl)[1,2,4]triazolo[1,5-c]quinazolin-5-yl]amino}azepan-2-one]	1.05e-08 M
Cc1cc(-c2nc3c4ccccc4nc(N[C@@H]4CCCCNC4=O)n3n2)ccc1F [Example 626, (3R)-3-{[2-(4-fluoro-3-methylphenyl)[1,2,4]triazolo[1,5-c]quinazolin-5-yl]amino}azepan-2-one]	9.2e-10 M
Cn1cc(-c2nc3c4cccc(C(F)(F)F)c4nc(N[C@@H]4CCNC4=O)n3n2)cn1 [Example 586, (3R)-3-{[2-(1-methyl-1H-pyrazol-4-yl)-7-(trifluoromethyl)[1,2,4]triazolo[1,5-c]quinazolin-5-yl]amino}pyrrolidin-2-one]	2.79e-07 M
Cc1ccc2c(c1)nc(N[C@@H]1CCCCNC1=O)n1nc(-c3cnn(C)c3)nc21 [Example 147, (3R)-3-{[8-methyl-2-(1-methyl-1H-pyrazol-4-yl)[1,2,4]triazolo[1,5-c]quinazolin-5-yl]amino}azepan-2-one]	7.53e-07 M
O=C1NCCCC[C@H]1Nc1nc2c(C(F)(F)F)cccc2c2nc(-c3nc(C4CC4)cs3)nn12 [Example 747, (3R)-3-{[2-(4-cyclopropyl-1,3-thiazol-2-yl)-7-(trifluoromethyl)[1,2,4]triazolo[1,5-c]quinazolin-5-yl]amino}azepan-2-one]	1.65e-09 M
O=C1NCCCC[C@H]1Nc1nc2cccc(C(F)(F)F)c2c2nc(-c3cccc(F)c3)nn12 [Example 171, (3R)-3-{[2-(3-fluorophenyl)-10-(trifluoromethyl)[1,2,4]triazolo[1,5-c]quinazolin-5-yl]amino}azepan-2-one]	6.2e-08 M

Further lines, results first:

IC50	Structure (SMILES)
9.19e-06 M	COc1cccc2c1nc(N[C@@H]1CCCCNC1=O)n1nc(-c3cn[nH]c3)nc21 [Example 755, (3R)-3-{[7-methoxy-2-(1H-pyrazol-4-yl)[1,2,4]triazolo[1,5-c]quinazolin-5-yl]amino}azepan-2-one]
6.39e-09 M	O=C1NCCCC[C@H]1Nc1nc2cccc(Cl)c2c2nc(-c3cccc(F)c3)nn12 [Example 167, (3R)-3-{[10-chloro-2-(3-fluorophenyl)[1,2,4]triazolo[1,5-c]quinazolin-5-yl]amino}azepan-2-one]
1.82e-06 M	CCOc1ccccc1-c1nc2c3ccccc3nc(N[C@@H]3CCCCNC3=O)n2n1 [Example 198, (3R)-3-{[2-(2-ethoxyphenyl)[1,2,4]triazolo[1,5-c]quinazolin-5-yl]amino}azepan-2-one]
7.35e-07 M	Cn1cc(-c2nc3c4c(C5CC5)cccc4nc(N[C@@H]4CCCCNC4=O)n3n2)cn1 [Example 177, (3R)-3-{[10-cyclopropyl-2-(1-methyl-1H-pyrazol-4-yl)[1,2,4]triazolo[1,5-c]quinazolin-5-yl]amino}azepan-2-one]
1.97e-06 M	Cn1cc(-c2nc3c4ccc(Br)cc4nc(N[C@@H]4CCCCNC4=O)n3n2)cn1 [Example 230, (3R)-3-{[8-bromo-2-(1-methyl-1H-pyrazol-4-yl)[1,2,4]triazolo[1,5-c]quinazolin-5-yl]amino}azepan-2-one]
9.27e-08 M	CC[C@@H](Nc1nc2ccccc2c2nc(-c3cccc(Br)c3)nn12)C(N)=O [Example 445, (2R)-2-{[2-(3-bromophenyl)[1,2,4]triazolo[1,5-c]quinazolin-5-yl]amino}butanamide]
1.09e-05 M	COc1ccc(-c2nc3c4c(C(C)C)cccc4nc(N[C@@H]4CCCCNC4=O)n3n2)cc1 [Example 726, (3R)-3-{[2-(4-methoxyphenyl)-10-(propan-2-yl)[1,2,4]triazolo[1,5-c]quinazolin-5-yl]amino}azepan-2-one]
> 2e-05 M	Cn1cc(-c2nc3c4ccccc4nc(NC4CCNC4=O)n3n2)cn1 (single isomer, unassigned) [Example 19, 3-{[2-(1-methyl-1H-pyrazol-4-yl)[1,2,4]triazolo[1,5-c]quinazolin-5-yl]amino}pyrrolidin-2-one]
2.65e-06 M	Cn1cc(-c2nc3c4ccc(C(F)(F)F)cc4nc(N[C@@H]4CCCCNC4=O)n3n2)cn1 [Example 227, (3R)-3-{[2-(1-methyl-1H-pyrazol-4-yl)-8-(trifluoromethyl)[1,2,4]triazolo[1,5-c]quinazolin-5-yl]amino}azepan-2-one]
1.69e-09 M	O=C1NCCCC[C@H]1Nc1nc2c(C(F)(F)F)cccc2c2nc(-c3cccc(F)c3)nn12 [Example 581, (3R)-3-{[2-(3-fluorophenyl)-7-(trifluoromethyl)[1,2,4]triazolo[1,5-c]quinazolin-5-yl]amino}azepan-2-one]
1.62e-10 M	O=C1NCCCC[C@H]1Nc1nc2ccccc2c2nc(-c3ccc(F)cc3)nn12 [Example 74, (3R)-3-{[2-(4-fluorophenyl)[1,2,4]triazolo[1,5-c]quinazolin-5-yl]amino}azepan-2-one]
> 2e-05 M	COc1cc2nc(N[C@@H]3CCCCNC3=O)n3nc(-c4cnn(C)c4)nc3c2cc1OC [Example 589, (3R)-3-{[8,9-dimethoxy-2-(1-methyl-1H-pyrazol-4-yl)[1,2,4]triazolo[1,5-c]quinazolin-5-yl]amino}azepan-2-one]
3.56e-10 M	O=C1NCCCC[C@H]1Nc1nc2ccccc2c2nc(-c3ccc(F)cc3F)nn12 [Example 201, (3R)-3-{[2-(2,4-difluorophenyl)[1,2,4]triazolo[1,5-c]quinazolin-5-yl]amino}azepan-2-one]
2.53e-08 M	COc1cccc(-c2nc3c4ccccc4nc(NC4CCN(C)C4=O)n3n2)c1 (stereo not drawn) [Example 80, 3-{[2-(3-methoxyphenyl)[1,2,4]triazolo[1,5-c]quinazolin-5-yl]amino}-1-methylpyrrolidin-2-one]
1.35e-09 M	CCC[C@@H](Nc1nc2ccccc2c2nc(-c3csc(C)c3)nn12)C(=O)NC [Example 357, N-methyl-N^2-[2-(5-methylthiophen-3-yl)[1,2,4]triazolo[1,5-c]quinazolin-5-yl]-D-norvalinamide]
8.44e-08 M	Nc1ccc(-c2nc3c4ccccc4nc(N[C@@H]4CCCCNC4=O)n3n2)cc1 [Example 620, (3R)-3-{[2-(4-aminophenyl)[1,2,4]triazolo[1,5-c]quinazolin-5-yl]amino}azepan-2-one]
